± gives the expanded uncertainty stated by the source.
Assay: molar heat capacity at saturation pressure
Conditions: Large sample (1 g) DSC

C1C2CC3CC1CC(C14CC5CC(CC(C5)C1)C4)(C2)C3 [1,1'-biadamantane]
Conditions	molar heat capacity [J/K/mol]
368.9 K, Crystal 2	422.5 ± 10
372.5 K, Crystal 2	428.1 ± 10
376.1 K, Crystal 2	435.3 ± 11
379.7 K, Crystal 2	439.7 ± 11
383.3 K, Crystal 2	443.1 ± 11
386.9 K, Crystal 2	448.3 ± 11
390.4 K, Crystal 2	452.1 ± 11
394 K, Crystal 2	456.9 ± 11
397.6 K, Crystal 2	460.5 ± 11
401.2 K, Crystal 2	466.4 ± 11
404.8 K, Crystal 2	471.7 ± 12
408.4 K, Crystal 2	471.9 ± 12
412 K, Crystal 2	478.1 ± 12
415.6 K, Crystal 2	481.4 ± 12
419.2 K, Crystal 2	490.8 ± 12
422.8 K, Crystal 2	493.1 ± 12
426.4 K, Crystal 2	496.1 ± 12
430 K, Crystal 2	501.3 ± 12
433.6 K, Crystal 2	507.8 ± 12
437.1 K, Crystal 2	513 ± 13
440.7 K, Crystal 2	519.9 ± 13
444.3 K, Crystal 2	525 ± 13
447.9 K, Crystal 2	529.9 ± 13
451.5 K, Crystal 2	537.9 ± 13
455.1 K, Crystal 2	544.8 ± 13
458.7 K, Crystal 2	549.6 ± 14
462.3 K, Crystal 2	556.8 ± 14
465.9 K, Crystal 2	563.6 ± 14
469.5 K, Crystal 2	572.6 ± 14
473 K, Crystal 2	579.1 ± 14
476.6 K, Crystal 2	584.1 ± 14
480.2 K, Crystal 2	587.8 ± 14
483.8 K, Crystal 2	600.3 ± 15
487.4 K, Crystal 2	611.9 ± 15
491 K, Crystal 2	607.2 ± 15
494.6 K, Crystal 2	617.9 ± 15
495.5 K, Crystal 2	621.1 ± 15
496.4 K, Crystal 2	621.4 ± 15
497.3 K, Crystal 2	621.7 ± 15
498.1 K, Crystal 2	626.7 ± 15
499 K, Crystal 2	629.7 ± 15
499.9 K, Crystal 2	632.7 ± 16
500.8 K, Crystal 2	635.2 ± 16
501.7 K, Crystal 2	637.1 ± 16
502.6 K, Crystal 2	636.9 ± 16
503.5 K, Crystal 2	639 ± 16
504.4 K, Crystal 2	644.5 ± 16
505.3 K, Crystal 2	647.9 ± 16
506.2 K, Crystal 2	659.8 ± 16
507 K, Crystal 2	693.8 ± 17
507.9 K, Crystal 2	741.7 ± 18
508.7 K, Crystal 2	773.6 ± 19
509.6 K, Crystal 1	792.3 ± 19
510.6 K, Crystal 1	763.7 ± 19
511.5 K, Crystal 1	724.5 ± 18
512.4 K, Crystal 1	700.9 ± 17
513.3 K, Crystal 1	684.2 ± 17
514.2 K, Crystal 1	674.9 ± 16
515.2 K, Crystal 1	668.9 ± 16
516.1 K, Crystal 1	662.2 ± 16
517 K, Crystal 1	655.5 ± 16
517.9 K, Crystal 1	658.8 ± 16
518.8 K, Crystal 1	647.2 ± 16
519.7 K, Crystal 1	637.1 ± 16
520.6 K, Crystal 1	640.5 ± 16
522.4 K, Crystal 1	641.1 ± 16
523.3 K, Crystal 1	647.5 ± 16
524.2 K, Crystal 1	653.8 ± 16
525.1 K, Crystal 1	653.9 ± 16
526.8 K, Crystal 1	660.2 ± 16
527.7 K, Crystal 1	653 ± 16
528.6 K, Crystal 1	663.2 ± 16
529.5 K, Crystal 1	664.4 ± 16
530.4 K, Crystal 1	664.4 ± 16
531.3 K, Crystal 1	663.3 ± 16
532.2 K, Crystal 1	664.8 ± 16
533.1 K, Crystal 1	667.8 ± 16
534 K, Crystal 1	666.7 ± 16
534.9 K, Crystal 1	674.5 ± 16
535.8 K, Crystal 1	671 ± 16
536.7 K, Crystal 1	671.7 ± 16
537.6 K, Crystal 1	675 ± 16
538.5 K, Crystal 1	681.1 ± 17
539.4 K, Crystal 1	676.6 ± 17
540.3 K, Crystal 1	677 ± 17
543.1 K, Crystal 1	681.3 ± 17
544.9 K, Crystal 1	692.5 ± 17
546.7 K, Crystal 1	693.7 ± 17
548.5 K, Crystal 1	702.1 ± 17
550.3 K, Crystal 1	709.8 ± 17
552.1 K, Crystal 1	724.2 ± 18
553.9 K, Crystal 1	741 ± 18
555.7 K, Crystal 1	752.9 ± 18
557.4 K, Crystal 1	744.3 ± 18
559.2 K, Crystal 1	772.6 ± 19
561 K, Crystal 1	802.7 ± 20

Reference: the NIST ThermoML archive (doi:10.1016/j.tca.2007.03.018)
